Read-outs that look alike come from different tables or passages of the source.
Experiments:
Male C57BL/6J mice [1] = conditions: one week after LC ligation, severe flow reduction
Description: (§1) Briefly, the distal left common carotid artery (LC) artery and its bifurcation into the external and internal carotid were exposed using blunt dissection. 9-0 nylon sutures (USSC Sutures, Norwalk, Conn.) were used to ligate the EC artery, incisions were closed (7-0 polypropylene) and mice were left to recover. Severe reduction in flow was achieved by ligating the LC artery just proximal to the external/internal carotid artery bifurcation. Five μm cross sections were used from parallel regions of RC and LC that were isolated in 5 millimeter (mm) blocks proximal to the ligation, until reaching a parallel point at the RC artery branchpoint with the right subclavian artery. […] Mice that developed thrombosis were excluded from the analysis. […] Urine was collected from individual mice using metabolic cages at four weeks of age, and again after a four week period of treatment, subsequent to either moderate or severe flow reduction. Urine samples were frozen at −20° for analysis.

Male C57BL/6J mice [2] = test system: Male C57BL/6J mice
Experimental: (§2) Animals: All animal studies were performed according to protocols approved by the Institutional Committee for Use and Care of Laboratory Animals. Male C57BL/6J mice, aged four to six weeks were used for the flow reduction models. The parental background strain of the male, four to six week old donor mice in the transplant studies was also C57BL/6J (H2b). The background of the recipient mice was C3H(H2k) (Taconic Farms Inc, Germantown, N.Y.).
Urine was collected over a 24 hour period in metabolic cages (Nalgene Labware, Deepwater, N.J.) with vehicle or nimesulide allowed ad libitum. Urinary levels of prostanoid metabolites were measured by stable isotope dilution methods as previously described. […] A urine aliquot (0.1 ml) was used for measurement of creatinine by an automated colorimetric assay (Sigma-Aldrich Co., St Louis, Mo.).
as §1

Male C57BL/6J mice [3] = conditions: nimesulide
Experimental: as §2, §1

IP [4] = test: Whole blood platelet aggregation assay; conditions: 10 nM cicaprost, collagen 2 μg/ml ex vivo
IP [5] = biological target: T1, IP (Mus musculus, UniProt P43252); test: Direct measurement of blood pressure after cicaprost; format: in vivo; conditions: cicaprost 1 μg/kg iv
T1 construct: from tissue; host or cells: live anesthetized mice (WT, IP+/- and IP-/- littermates, C57BL/6 background); vasculature
Description: (§3) IPKO and mPGES-1 KO mice: IPKO mice were backcrossed into a C57BL/6 genetic background (Cheng et al., 2002, Science 296: 539). IP^−/−, IP^+/−, and WT littermates were identified in litters generated by the intercross of IP^+/− animals by polymerase chain reaction analysis (PCR) of genomic DNA isolated from tail biopsy samples. Southern blot analysis confirmed the IP gene copy number. mPGES-1 KO mice were kindly provided by Pfizer Inc (New York, N.Y.). They were generated and maintained on the DBA/1 lacJ genetic background (Trebino et al., 2003, Proc. Natl. Acad. Sci. U.S.A. 100: 9044). Heterozygous animals were intercrossed, and the litters were screened by PCR analysis to identify both mPGES-1 KO and wild-type controls. Biochemical and functional analyses in each case were performed on mutant mice and WT littermate controls.
(§4) (iii) Direct measurement of blood pressure: Mice were anesthetized (ketamine 100 mg/kg, acepromazine 5 mg/kg) and placed on a temperature-controlled panel. The right internal jugular vein and left carotid artery were cannulated with PE-10 tubing. The arterial catheter was connected to a Capto SP844 pressure transducer (Capto, Horten, Norway), and blood pressure (BP) was monitored continuously with a Powerlab/8SP system (AD Instruments Inc.), as previously described (Hui et al., 2004, Circulation 110:3360; Rocca et al., 2000, Nat. Med. 6:219). Blood pressure and heart rate were continuously monitored for 20-40 minutes until stable values were obtained. After the equilibration period and the baseline BP was recorded, mice were injected via the right internal jugular vein with cicaprost (1 ug/kg in 4 mL/kg saline) as a bolus, and the same volume of saline was injected before cicaprost administration to exclude volume-mediated BP changes. The BP was continuously recorded until it returned to pretreatment baseline.

IP [6] = test: as above; format: in vivo, mouse; conditions: cicaprost 1 μg/kg iv, IP−/−
Description: as §3, §4

heme oxygenase 1 (HO 1) = test: Heme oxygenase 1 Western blotting in MASMC; format: cell-based, mouse; conditions: 100 nM cicaprost, 8 hours, IP-dependent
Experimental: (§5) Mouse aortic smooth muscle cells (MASMCs): Primary aortic smooth muscle cells were prepared. […] Cells were cultured in Dulbecco's Modified Eagles medium (DMEM)/Ham's F12 (50/50) (Gibco BRL, Grand Island, N.Y.; with 15 mM HEPES and 2 mM glutamine) supplemented with 20% fetal bovine serum. Cells were routinely passaged using 0.05% trypsin/0.53 mM EDTA, seeded onto six well plates and used at 80-90% confluence, between passages five to nine.
Heme oxygenase 1 (HO 1) Western Blotting: A polyclonal rabbit anti-heme oxygenase 1 (HO 1, ˜32 kDa) was purchased from Stressgen Biotechnologies, Victoria, BC, Canada. MASMCs were treated with 100 nM cicaprost for 8 hours in RPMI vehicle at 37° C. Control cells were treated with vehicle for the same time period. […] Protein isolated from aortae of high fat fed mice was quantitated by the BioRad DC assay for Western Blotting.

[7] = test system: mouse aortic smooth muscle cells (MASMC); test: H2O2-induced 8,12-iso-iPF2α-VI generation in MASMC; format: cell-based
Experimental: as §5
Cicaprost (100 nM, Schering A G, Berlin, Germany by agreement) was added to MASMC medium just prior to addition of H2O2.
Short term treatment with E2: Cells were washed twice rinsing with RPMI serum free medium and then pre-incubated in 1 ml RPMI serum free medium for 1 hour. […] .
The 8,12-iso-iPF2α-VI was analyzed in 1 ml conditioned medium, adjusted to pH 3, using the same method described for urine samples.

mice [8] = test: Tail cuff blood pressure measurement; format: in vivo, mouse; conditions: celecoxib treatment, regular chow diet
Experimental: (i) Tail Cuff measurement: Resting systolic blood was measured in conscious mice (3-4 months old) using a computerized noninvasive tail-cuff system (Visitech Systems, Apex, N.C.). […] Mice were adapted to the system for 14 days; measurements of sessions 25 minutes in length were done once each day between 15:00 and 18:00. After that, blood pressure was recorded daily for 3 consecutive days in the same way. Data were collected and analyzed using updated BP 2000 software (http://www(dot)visitechsystems(dot)com/).

eicosanoid biosynthesis = test: Urinary eicosanoid analyses in mice; format: in vivo, mouse
Experimental: Mice: In all cases, transgenic mice deficient in the indicated gene were compared with appropriate strain-, age-, and sex-matched control animals. The investigator was unaware of the genotype throughout the experiment. All procedures were approved and animal husbandry was overseen by the Institutional Animal Care and Usage Committee of the University of Pennsylvania.
Eicosanoid analyses: Urinary 2,3-dinor TxB2 and 2,3-dinor 6-keto PGF1α were measured in twenty four hour urines collected in metabolic cages. After extraction and purification by thin layer chromatography, they were analyzed by gas chromatography/mass spectrometry, as previously described (Egan et al., 2005, Circulation 111:334). Urinary PGE-M was measured by LC/MS/MS as follows: First, 10 ng of hexadeuterated PGE-M (9,15-dioxo-11α-hydroxy-2,3,4,5-tetranor-prostan-1,20-dioic-17,17,18,18,19,19-d6 acid; Cayman Chemical Co., Ann Arbor, Mich.) was added to 0.1 ml of mouse urine. Next, 50 μL of methoxyamine HCl, 1 g/L, was added and the sample was mixed and allowed to stand at room temperature for 15 minutes. The sample was then diluted to 1.0 ml with water and extracted on a Strata™-X solid phase extraction (SPE) cartridge (Phenomenex Inc., Torrance, Calif.). The SPE was eluted with 1.0 mL of 5% acetonitrile in ethyl acetate, dried, dissolved in 200 μL 10% acetonitrile in water, and injected for LC/MS/MS analysis. Transitions monitored were m/z 385→336 for the endogenous PGE-M and 391→342 for the internal standard.

mice [9] = conditions: mouse, in vivo
Experimental: Briefly, mice (12→16 weeks) were anesthetized with sodium pentobarbital (80 mg/kg, intraperitoneally). Following a midline cervical incision, the left common carotid artery was isolated and a Doppler flow probe (Model 0.5 VB, Transonic Systems Co., Ithaca, N.Y.) was applied. The probe was connected to a flowmeter (Transonic Model T105) and interpreted with Powerlab® (AD Instruments, Colorado Springs, Colo.), a computerized data acquisition program. Rose Bengal (Fisher Scientific, Fair Lawn, N.J.) was diluted to phosphate-buffered saline and then injected into the jugular vein in a volume of 0.12 ml at a concentration of 50 mg/kg. Immediately prior to injection, a 1.5-mW green light laser (540 nm) (Melles Griot, Carlsbad, Calif.) was applied to the desired site of injury from a distance of 5 cm carotid artery; blood flow was monitored for 120 minutes or until stable occlusion occurred, after which the mice still showing blood flow were assigned a value of 120 minutes. Stable occlusion was defined as a blood flow of 0 ml/min for 3 minutes.

[10] = Case study of short term valdecoxib use; format: in vivo, human; conditions: valdecoxib 20 mg b.i.d. Person on oral contraceptive
Experimental: A ventilation-perfusion scan (VQ scan) was performed according to typical hospital procedure. Inhalation of 20.1 millicurie (mCi) of Xenon-133 gas was used for the ventilation scan. Intravenous injection of 4.1 mCi of Tc-99m-labelled MAA was used for the perfusion scan.
A person presented with pulmonary embolism. They had been taking, without complication, Ortho-Tricyclen® (0.180, 0.215, and 0.250 mg norgestimate cycles; 35 microgram (μg) ethinyl estradiol) for two years and Ortho Tri-cyclen® LO (same norgestimate; 25 μg ethinyl estradiol) for 14 months. A non-smoker, they lacked a relevant family history and was vigorously athletic.
One month prior to presentation, they developed neck pain. Disc protrusion at C5-C6 was detected by magnetic resonance imaging (MRI). The patient was prescribed valdecoxib 20 mg b.i.d. for two weeks. Their neck pain resolved. However, towards the end of this two-week treatment period, they developed left-sided pleuritic chest and shoulder pain after a 6 hour car ride. They were commenced on cyclobenzaprine 10 mg b.i.d. and continued on valdecoxib. Their left-sided pain abated gradually. However, 18 days later, they developed right-sided chest and shoulder pain. […]

[11] = small, short-term studies of cardiopulmonary bypass grafting; cited from earlier work
[12] = nimesulide, severe flow reduction

T1 sequence (P43252 1-412 limits assumed): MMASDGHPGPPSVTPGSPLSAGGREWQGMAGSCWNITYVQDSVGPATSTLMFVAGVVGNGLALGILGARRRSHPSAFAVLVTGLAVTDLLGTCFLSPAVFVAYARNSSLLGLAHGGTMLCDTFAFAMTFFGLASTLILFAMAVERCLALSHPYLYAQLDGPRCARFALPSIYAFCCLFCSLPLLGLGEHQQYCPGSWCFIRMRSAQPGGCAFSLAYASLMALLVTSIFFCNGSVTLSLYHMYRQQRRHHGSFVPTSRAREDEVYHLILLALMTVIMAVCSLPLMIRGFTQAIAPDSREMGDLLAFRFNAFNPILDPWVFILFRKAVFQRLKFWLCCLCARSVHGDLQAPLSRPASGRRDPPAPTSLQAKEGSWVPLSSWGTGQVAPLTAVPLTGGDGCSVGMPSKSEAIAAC

CS(=O)(=O)Nc1ccc([N+](=O)[O-])cc1Oc1ccccc1 [nimesulide]
blood flow in the LC, nimesulide vs vehicle (Male C57BL/6J mice [1]): marked reduction | urinary PGI-M (Male C57BL/6J mice [2]; nimesulide 40 mg/L in drinking water, chronic, control mice): depressed urinary PGI-M | urinary 2,3-dinor TxB2 excretion (Male C57BL/6J mice [2]; nimesulide, control conditions): failed to suppress | excretion of an isoprostane biomarker of lipid peroxidation (Male C57BL/6J mice [2]; nimesulide, control mice): did not alter excretion | urinary PGI-M (Male C57BL/6J mice [2]; nimesulide, moderate and severe reduction in flow): depressed PGI-M to a similar degree | oxidant stress, urinary 8,12-iso-iPF2α-VI (Male C57BL/6J mice [2]; [12]): markedly augmented | platelet activation, urinary 2,3-dinor TxB2 excretion (Male C57BL/6J mice [2]; [12]): markedly augmented | lumen diameter and external elastic lamina diameter of RCs or LCs (Male C57BL/6J mice [3]; control mice): did not itself affect | flow dependent reduction in vessel size (luminal and EEL diameter) (Male C57BL/6J mice [3]; moderate or severe flow reduction): failed to alter | neointimal area, intimal hyperplastic response in LC (Male C57BL/6J mice [3]; severe flow reduction): markedly augmented the intimal hyperplastic response

CCC#CC[C@H](C)[C@H](O)C#C[C@@H]1[C@H]2C/C(=C/COCC(=O)O)C[C@H]2C[C@H]1O [cicaprost]
platelet aggregation readout, second value printed for IP+/− mice (IP [4]): 100% | inhibition of platelet aggregation, % of the maximal inhibition observed in WTs (IP [4]; IP+/− mice): 86.7% | duration of the depressor response (IP [5]; IP+/−): 5.3 ± 1.1 min | maximal decline in mean arterial pressure from pretreatment baseline (IP [5]; IP+/−): 24% | maximal decline in mean arterial pressure from pretreatment baseline (IP [5]; WT): 36±3.5% | duration of the depressor response (IP [5]; WTs): 10.8 ± 2.5 min | depressor response, MAP (IP [6]): no change in MAP | maximal decline in mean arterial pressure from pretreatment baseline (IP [6]): 0% | HO 1 protein expression (heme oxygenase 1 (HO 1)): increased expression | response of MASMCs to H2O2, iP generation ([7]; cicaprost 100 nM, H2O2 100 μM 30 min): limits the response | iP generation from unstimulated cells ([7]; cicaprost, MASMC without H2O2): does not significantly reduce

Cc1ccc(-c2cc(C(F)(F)F)nn2-c2ccc(S(N)(=O)=O)cc2)cc1 [celecoxib]
blood pressure compared to WT controls (mice [8]): elevated

CC1(C)OC(=O)C(c2cccc(F)c2)=C1c1ccc(S(C)(=O)=O)cc1 [DFU, 5,5-dimethyl-3-(3-fluorophenyl)-4-(4-methylsulphonyl)phenyl-2(5H)-furanone]
mean depression of urinary 2,3-dinor 6-keto PGF1α from pretreatment values (eicosanoid biosynthesis; DFU, WT mice): 71.2% | mean depression of urinary PGE-M from pretreatment values (eicosanoid biosynthesis; DFU, WT mice): 52.3% | urinary 2,3-dinor TxB2 vs pretreatment values (eicosanoid biosynthesis; DFU, WT mice): did not depress | urinary 2,3-dinor TxB2 (eicosanoid biosynthesis; DFU, WT mice, second value of the printed pair (4.63±1.3 vs.), order not stated): 6.0±1.1 ng/mg creatinine | urinary 2,3-dinor 6-keto PGF1α (eicosanoid biosynthesis; PGHS-2 inhibition, mice): suppressed substantially | urinary 2,3-dinor TxB2 (eicosanoid biosynthesis; treatment with PGHS-2 selective inhibitor, mice): unaltered significantly | mean impact on time to occlusion, % of WT value (mice [9]): 56.2%

Cc1onc(-c2ccccc2)c1-c1ccc(S(N)(=O)=O)cc1 [valdecoxib]
adverse event diagnosed in the patient [10]: left iliac vein thrombosis and bilateral pulmonary emboli | relative risk of heart attack and stroke [11]: three-fold increase

— patent US7833795B2, “Assessment of cardiovascular risk using isoprostane biomarkers and COX-2 selective inhibitors” (The Trustees of the University of Pennsylvania, priority 2004, dated 2010)
